{"source": "paper PMC9917099", "about": "“The Mycotoxin Patulin Inhibits the Mitochondrial Carnitine/Acylcarnitine Carrier (SLC25A20) by Interaction with Cys136 Implications for Human Health” (International Journal of Molecular Sciences, 2023)", "key": {"[1]": {"target": "T1, recombinant rat WT CAC (Rattus norvegicus, UniProt P97521)", "T1 construct": "made in house; host or cells: E. coli C0214 (pMW7, inclusion bodies)", "T1 sequence (P97521 1-301)": "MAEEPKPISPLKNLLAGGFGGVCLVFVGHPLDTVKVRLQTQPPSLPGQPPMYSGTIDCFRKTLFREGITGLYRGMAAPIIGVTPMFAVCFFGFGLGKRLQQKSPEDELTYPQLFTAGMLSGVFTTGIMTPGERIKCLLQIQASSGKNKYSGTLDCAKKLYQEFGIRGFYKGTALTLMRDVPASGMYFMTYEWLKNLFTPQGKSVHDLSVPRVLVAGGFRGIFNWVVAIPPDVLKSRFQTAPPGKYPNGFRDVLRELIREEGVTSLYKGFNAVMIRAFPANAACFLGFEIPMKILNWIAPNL", "experiment": "[3H]-carnitine/carnitine antiport in proteoliposomes with recombinant rat WT CAC", "type": "biochemical", "experimental": "To shed light on the interaction between PAT and CAC and verify if specific Cys residues were involved, transport experiments on the recombinant rat and human WT CAC and CAC’s rat Cys mutants were performed. As in the case of the native protein, transport activities were measured as [^3H]-carnitine/carnitine antiport in proteoliposomes. […] The PAT inhibition of the WT recombinant protein was only slightly greater compared to the native protein, although compounds and other molecular systems that affect the mycotoxin binding to the native CAC were absent (see above). For identifying the residues involved in the PAT interaction, site-directed Cys mutants were tested for inhibition (Figure 2). […] The choice of this last mutant was due to the proximity of C155 to C136 during some steps of the substrate translocation mechanism. […] To confirm the main role played by C136 in the carrier PAT-induced impairment, the single mutant C155S and the mutant containing only C136 residue (C23V/C58V/C89S/C155V/C283S) were examined (Figure 2). […] Finally, no effect of the mycotoxin was observed on the C-less mutant (C23V/C58V/C89S/C136V/C155V/C283S), definitively excluding the participation of other residues in the interaction with PAT.\nFigure 2 Dose-response analysis of the PAT inhibition of the CAC recombinant proteins. […] The data are expressed as a percentage of the controls (no PAT addition) and are means ± SD of three independent experiments.\nThe pMW7-WT rat or human CAC recombinant plasmids were used for over-expressing the rat and human CAC, as previously described. To introduce the mutations on the rat CAC recombinant plasmid, the overlap extension method was used as described, introducing the NdeI and HindIII restriction sites. The PCR products were purified using the QIAEX II Gel Extraction Kit (QIAGEN, Hilden, Germany), digested with NdeI and HindIII, and then ligated into the pMW7. All mutations were verified by DNA sequencing. The resulting plasmid constructs were transformed into E. coli C0214. Overexpression, inclusion body fraction preparation, and purification of the CAC proteins were performed as previously described.\nThe recombinant CAC proteins were reconstituted in proteoliposomes as previously described. […]\n(§1) For the transport assay, 550 μL of proteoliposomes were passed through a Sephadex G-75 column in order to remove the external substrate. […] After finishing the transport reaction, the external radiolabel substrate was removed by gel filtration chromatography (Sephadex G-75), and the intraliposomal radioactivity was measured by liquid scintillation. Transport was measured at 25 °C. […] Transport rates were measured in 10 min, i.e., within the initial linear range of the time course."}, "[2]": {"target": "T2, rat CAC mutant C136S (Rattus norvegicus, UniProt P97521, C136S)", "T2 construct": "made in house; host or cells: E. coli C0214 (pMW7, inclusion bodies)", "T2 sequence (P97521 1-301 C136S)": "T1 sequence (P97521 1-301) with C136S", "experiment": "Carnitine antiport in proteoliposomes, CAC mutant C136S", "type": "biochemical", "experimental": "(§2) To shed light on the interaction between PAT and CAC and verify if specific Cys residues were involved, transport experiments on the recombinant rat and human WT CAC and CAC’s rat Cys mutants were performed. As in the case of the native protein, transport activities were measured as [^3H]-carnitine/carnitine antiport in proteoliposomes. […] The PAT inhibition of the WT recombinant protein was only slightly greater compared to the native protein, although compounds and other molecular systems that affect the mycotoxin binding to the native CAC were absent (see above). For identifying the residues involved in the PAT interaction, site-directed Cys mutants were tested for inhibition (Figure 2). […]\n(§3) Figure 2 Dose-response analysis of the PAT inhibition of the CAC recombinant proteins. […] The data are expressed as a percentage of the controls (no PAT addition) and are means ± SD of three independent experiments. […]\nas §1"}, "[3]": {"target": "T3, rat CAC mutant C155S (Rattus norvegicus, UniProt P97521, C155S)", "T3 construct": "made in house; host or cells: E. coli C0214 (pMW7, inclusion bodies)", "T3 sequence (P97521 1-301 C155S)": "T1 sequence (P97521 1-301) with C155S", "experiment": "Carnitine antiport in proteoliposomes, CAC mutant C155S", "type": "biochemical", "experimental": "as §2, §3, §1"}, "[4]": {"target": "T4, rat CAC mutant C23V/C58V/C89S/C155V/C283S (Rattus norvegicus, UniProt P97521, C155V/C23V/C283S/C58V/C89S)", "T4 construct": "made in house; host or cells: E. coli C0214 (pMW7, inclusion bodies)", "T4 sequence (P97521 1-301 C23V/C58V/C89S/C155V/C283S)": "T1 sequence (P97521 1-301) with C23V, C58V, C89S, C155V, C283S", "experiment": "Carnitine antiport in proteoliposomes, CAC mutant containing only C136", "type": "biochemical", "experimental": "as §2, §3, §1"}, "[5]": {"test_system": "cell viability", "parameters": "method as in PMID 25098256", "conditions": "60 µM; cited from earlier work"}}, "note": "Changes are numbered by the printed parent chain. Several values for one entry are separate records, joined by “and”; a condition that tells them apart may be missing. Equal entries are not always repeated.", "data": [{"smiles": "O=C1C=C2C(=CCOC2O)O1", "note": "(centres unmarked) [PAT, 4-hydroxy-4H-furo [3,2c] pyran-2 [6H] -one]", "values": [{"measurement": "reversal of inhibition by DTE", "setting": "[1]; 50 μM PAT 30 min, 5 mM DTE, recombinant WT", "result": "not reversed"}, {"measurement": "substrate protection: effect of carnitine on PAT inhibition", "setting": "[1]; carnitine 0.5 and 10 mM added before 50 μM PAT", "result": "partially prevented"}, {"measurement": "type of inhibition", "setting": "[1]; protein form not specified", "result": "competitive"}, {"measurement": "IC50", "setting": "[1]; rat recombinant WT, PAT 30 min, read-out: IC50 of CAC WT inhibition", "result": "47 µM and ~50 µM"}, {"measurement": "IC50", "setting": "[2]", "result": "not possible to detect"}, {"measurement": "IC50", "setting": "[3]", "result": "comparable to the WT"}, {"measurement": "IC50", "setting": "[4]", "result": "comparable to the WT"}, {"measurement": "toxicity for cell viability", "setting": "[5]", "result": "nontoxic range"}]}]}
